Results published in US20110319362A1, “STAT3 LIGANDS AND THERAPEUTIC USES THEREOF” (priority 2008, published 2011).
Like-named read-outs stand apart in the source and are kept apart here.

Assays:
[1] = test system: MDA-MB-231 cancer cell line; assay: Cell growth assay (WST-8); type: cell-based; settings: Homo sapiens, MDA-MB-231, 96 h; WST-8, 4 days; read-out: Inhibition of cell growth IC50, MDA-MB-231 cancer cell line
Description: (§1) The effect of STAT3 compounds on cell growth was evaluated by a WST-8 [2-(2-methoxy-4-nitrophenyl)-3-(4-nitrophenyl)-5-(2,4-disulfophenyl)-2H-tetrazolium, monosodium salt assay (Dojindo Molecular Technologies, Inc). Cells (3000-4000 cells in each well) were cultured in 96-well tissue culture plates in medium (200 μL) containing various concentrations of STAT3 compounds for 4 days. At the end of incubation, WST-8 dye (20 μL) was added to each well and incubated for an additional 1-3 h, and then the absorbance was measured in a microplate reader (Molecular Devices) at 450 nm. Cell growth inhibition was evaluated as the ratio of the absorbance of the sample to that of the control.

[2] = test system: MDA-MB-468 cancer cell line; assay: Cell growth assay (WST-8); type: cell-based; settings: Homo sapiens, MDA-MB-468, 96 h; WST-8, 4 days; read-out: Inhibition of cell growth IC50, MDA-MB-468 cancer cell line
Description: as §1

STAT3 protein = molecular target: T1, STAT3 protein (Homo sapiens, UniProt P40763); assay: In vitro competitive STAT3 binding assay (fluorescence polarization)
T1 construct: human STAT3 protein (residues 122-722) fused to His-tag; His-tag
T1 sequence (P40763 122-722): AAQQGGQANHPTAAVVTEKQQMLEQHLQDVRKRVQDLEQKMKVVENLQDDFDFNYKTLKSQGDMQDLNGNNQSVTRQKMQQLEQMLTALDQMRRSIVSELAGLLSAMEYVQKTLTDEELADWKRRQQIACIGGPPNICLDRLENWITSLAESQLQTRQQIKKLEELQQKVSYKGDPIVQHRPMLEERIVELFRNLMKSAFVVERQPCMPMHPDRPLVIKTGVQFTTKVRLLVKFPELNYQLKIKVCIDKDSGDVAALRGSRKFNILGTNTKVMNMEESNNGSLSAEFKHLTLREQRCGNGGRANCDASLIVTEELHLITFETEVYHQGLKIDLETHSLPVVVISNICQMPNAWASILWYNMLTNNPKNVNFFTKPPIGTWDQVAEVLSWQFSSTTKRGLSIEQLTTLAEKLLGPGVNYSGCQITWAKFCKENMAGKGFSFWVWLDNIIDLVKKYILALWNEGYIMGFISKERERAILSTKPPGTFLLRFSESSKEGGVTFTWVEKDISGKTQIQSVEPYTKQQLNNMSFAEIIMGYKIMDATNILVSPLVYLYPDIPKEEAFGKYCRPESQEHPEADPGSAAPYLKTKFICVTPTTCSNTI
Source text: To quantitatively determine the binding affinities of STAT3 inhibitors to STAT3 protein, a sensitive and quantitative in vitro binding assay was developed based upon fluorescence polarization (FP) method. For this FP assay, 5-carboxyfluorescein (5-Fam) was coupled to a phosphopeptide (phospho-Tyr-Leu-Pro-Gln-Thr-Val-amide) with two beta-alanine and one glycine residues as the spacer between 5-Fam and the phosphopeptide to obtain 5-Fam-beta-Ala-beta-Ala-Gly-phospho-Tyr-Leu-Pro-Gln-Thr-Val-amide as the fluorescently tagged tracer, which was named as STT2 peptide. […] The recombinant human STAT3 protein (residues 122-722) fused to His-tag was stable and soluble.
Competitive binding experiments were carried out using 150 nM of STAT3 protein and 5 nM of STT2 peptide with different concentrations of a tested STAT3 inhibitor. For each experiment, two controls were included. One control contained STAT3 protein and STT2 peptide, and the second control contained STT2 peptide only. The polarization values were measured after 2-3 hours of incubation using an ULTRA READER (Tecan U.S. Inc., Research Triangle Park, N.C.). IC50 values, the inhibitor concentration at which 50% of the fluorescently tagged STT2 peptide is displaced by STAT3 inhibitors, was determined from a plot using nonlinear least-squares analysis using GRAPHPAD PRISM software (GraphPad Software, Inc., San Diego, Calif.). […]

[3] = FP competitive binding, fluorescently tagged STT2 peptide tracer, read-out: Binding affinities to STAT3 IC50

SMILES | IC50 [1] | IC50 [2] | IC50 (STAT3 protein; [3]) | IC50 (STAT3 protein)
NCCOCCOCCOCCOCCC(=O)N[C@@H](Cc1ccc(OP(=O)(O)O)cc1)C(=O)N[C@H]1CCCCC2CC[C@@H](C(=O)N[C@@H](CCC(N)=O)C(=O)NCc3ccccc3)N2C1=O (stereo partly drawn) | > 100 µM | > 100 µM | < 5 µM | –
CCCCCCCCNC(=O)[C@H](CCC(N)=O)NC(=O)[C@@H]1CCC2CCCC[C@H](NC(=O)[C@H](Cc3ccc(OP(=O)(O)O)cc3)NC)C(=O)N21 (stereo partly drawn) | > 100 µM | > 100 µM | < 5 µM | –
CCCCCCCCCCCCNC(=O)[C@H](CCC(N)=O)NC(=O)[C@@H]1CCC2CCCC[C@H](NC(=O)[C@H](Cc3ccc(OP(=O)(O)O)cc3)NC)C(=O)N21 (stereo partly drawn) | < 30 µM | < 20 µM | < 5 µM | –
CCCCCCCCCCCCCCCCCCCCNC(=O)[C@H](CCC(N)=O)NC(=O)[C@@H]1CCC2CCCC[C@H](NC(=O)[C@H](Cc3ccc(OP(=O)(O)O)cc3)NC)C(=O)N21 (stereo partly drawn) | < 30 µM | < 30 µM | < 5 µM | –
CCCCCCCCCCCCCCCCNC(=O)[C@H](CCC(N)=O)NC(=O)[C@@H]1CC[C@@H]2CCCC[C@H](NC(=O)[C@H](Cc3ccc(OP(=O)(O)O)cc3)NC(=O)CCN3CCN(C)CC3)C(=O)N21 | > 20 µM | > 20 µM | – | < 5 µM
CCCCCCCCCCCCCCCCN1CCN(CCC(=O)N[C@@H](Cc2ccc(OP(=O)(O)O)cc2)C(=O)N[C@H]2CCCCC3CC[C@@H](C(=O)NCCCC(O)CO)N3C2=O)CC1 (stereo partly drawn) | < 20 µM | < 20 µM | < 10 µM | –
CCCCCCCCCCCCCCCCN1CCN(CCC(=O)N[C@@H](Cc2ccc(OP(=O)(O)O)cc2)C(=O)N[C@H]2CCCCC3CC[C@@H](C(=O)NCCc4cnc[nH]4)N3C2=O)CC1 (stereo partly drawn) | < 10 µM | < 10 µM | < 10 µM | –
CCCCCCCCCCCCCCCCN1CCN(CCC(=O)N[C@@H](Cc2ccc(OP(=O)(O)O)cc2)C(=O)N[C@H]2CCCCC3CC[C@@H](C(=O)N[C@@H](CCC(N)=O)C(=O)NCc4ccccc4)N3C2=O)CC1 (stereo partly drawn) | < 10 µM | < 10 µM | < 1 µM | –
CCCCCCCCCCCCCCCCN1CCN(CCC(=O)N[C@@H](Cc2ccc(OP(=O)(O)O)cc2)C(=O)N[C@H]2CCCCC3CC[C@@H](C(=O)N[C@H](CO)Cc4c[nH]cn4)N3C2=O)CC1 (stereo partly drawn) | < 20 µM | < 20 µM | < 5 µM | –
CCCCCCCCCCCCCCCCN1CCN(CCC(=O)N[C@@H](Cc2ccc(OP(=O)(O)O)cc2)C(=O)N[C@H]2CCCCC3CC[C@@H](C(=O)N[C@@H](Cc4c[nH]cn4)C(=O)NCc4ccccc4)N3C2=O)CC1 (stereo partly drawn) | < 30 µM | < 30 µM | < 5 µM | –
CCCCCCCCCCCCCCCCN1CCN(CCC(=O)N[C@@H](Cc2ccc(OP(=O)(O)O)cc2)C(=O)N[C@H]2CCCCC3CC[C@@H](C(=O)NCCc4nnc[nH]4)N3C2=O)CC1 (stereo partly drawn) | < 20 µM | < 20 µM | < 5 µM | –
CCCCCCCCCCCCCCCCN1CCN(CCC(=O)N[C@@H](Cc2ccc(OP(=O)(O)O)cc2)C(=O)N[C@H]2CCCCC3CC[C@@H](C(=O)NCCCCNC)N3C2=O)CC1 (stereo partly drawn) | < 50 µM | < 50 µM | < 10 µM | –
CCCCCCCCCCCCCCCCN1CCN(CCC(=O)N[C@@H](Cc2ccc(OP(=O)(O)O)cc2)C(=O)N[C@H]2CCCCC3CC[C@@H](C(=O)NCCCCN(C)C)N3C2=O)CC1 (stereo partly drawn) | < 100 µM | < 50 µM | < 20 µM | –
CCCCCCCCCCCCCCCCN1CCN(CCC(=O)N[C@@H](Cc2ccc(OP(=O)(O)O)cc2)C(=O)N[C@H]2CCCCC3CC[C@@H](C(=O)NCCc4cn[nH]c4)N3C2=O)CC1 (stereo partly drawn) | < 20 µM | < 20 µM | < 5 µM | –
CCCCCCCCCCCCCCCCN1CCN(CCC(=O)N[C@@H](Cc2ccc(OP(=O)(O)O)cc2)C(=O)N[C@H]2CCCCC3CC[C@@H](C(=O)NCCN4CCNC4=O)N3C2=O)CC1 (stereo partly drawn) | < 30 µM | < 20 µM | < 5 µM | –
CCCCCCCCCCCCCCCCN1CCN(CCC(=O)N[C@@H](Cc2ccc(CP(=O)(O)O)cc2)C(=O)N[C@H]2CCCCC3CC[C@@H](C(=O)N[C@@H](CCC(N)=O)C(=O)NCc4ccccc4)N3C2=O)CC1 (stereo partly drawn) | > 100 µM | > 100 µM | – | > 100 µM
CCCCCCCCCCCCCCCC(=O)N[C@H](Cc1ccc(OCP(=O)(O)O)cc1)C(=O)N[C@H]1CCCCC2CC[C@@H](C(=O)N[C@@H](CCC(N)=O)C(=O)NCc3ccccc3)N2C1=O (stereo partly drawn) | < 100 µM | < 50 µM | – | < 5 µM
